The text below walks through data of US20240393340A1, “PROGNOSIS AND PREDICTIVE BIOMARKERS AND BIOLOGICAL APPLICATIONS THEREOF” (INSTITUT GUSTAVE ROUSSY, priority 2013, published 2024).

Holding throughout (type): cell-based
For one test, the system named is eIF4F complex. In words: Cap binding assay (m7GTP-Sepharose beads). The procedure:
FIG. 3: Examination of eIF4F complex formation by the “cap binding assay” in the indicated cell lines. Eluates from the beads (m7G-bound) and total extracts (input) were analyzed on 4% to 12% gradient gel electrophoresis, followed by Western blotting with the indicated antibodies.
Cells were grown for 48 h in 10% Fetal Bovine Serum (FBS) followed by 24 h without FBS. Cells were subsequently grown for 12 h in the absence or the presence of trastuzumab. Cells were harvested and lysed in ice-cold lysis buffer (KCl 150 mM, Hepes pH 7.5 50 mM, DTT 2 mM, Tween 20 0.2%, and Complete Protease Inhibitor Cocktail from Roche). Cell lysates were incubated with 7-methyl-GTP-sepharose 4B beads (Amersham Biosciences) for 2 h at 4° C. Eluates from the beads (7 mG-bound) and total extracts (Tot.) were analyzed on 4-12% gradient gel electrophoresis followed by western blot. Experiments were repeated at least 4 times.
In a so-called “cap binding assay”, synthetic m7GTP-Sepharose beads were used to capture eIF4E and its binding partners, eIF4G (called Cap-ON complex) and 4EBP1 (called Cap-OFF complex). The inventors observed that following PLX-4720 treatment, the amount of eIF4E-bound 4EBP1 (Cap-OFF complex) was increased, whereas the quantity of eIF4E-bound eIF4G (Cap-ON complex), i.e. the formation of the active eIF4F complex, was decreased in the two PLX-4720-sensitive cell lines (A375, Mel888) (FIG. 3). In contrast, and consistent with the inventors' hypothesis, the formation of the eIF4F complex was unchanged in the two cell lines (Mel624, A2058) with less sensitivity to PLX-4720.

Another test relates to Mel10. Description: Short-term growth-inhibition assay, PLX-4720 (Example 1). The conditions noted are these: Mel10 cell line; read-out: half-maximum inhibitory concentration (IC50). On the procedure: (§1) FIGS. 1A-1B: Short-term growth-inhibition assay of a panel of melanoma cell lines including BRAF (V600E) cell lines and an NRAS (Q61R) mutated cell line. FIG. 1A. Cells were treated with increasing concentrations of N-[3-[(5-Chloro-1H-pyrrolo[2,3-b]pyridin-3-yl)carbonyl]-2,4-difluorophenyl]-1-propanesulfonamide (PLX-4720) for 72 h and cell viability was determined using CellTiter-Blue by measuring the absorbance at 540 nm in a microplate reader. Error bars show data +standard error. Means were derived from four replicates (n=4). FIG. 1B. Long-term colony formation assay of the indicated cells. Cells were grown in the absence or presence of PLX-4720 at the indicated concentrations for 15-20 days. For each cell line, all dishes were fixed at the same time, stained and photographed.
(§2) Cell proliferation was measured using a WST-1 reagent (Roche Applied Science, IN, USA). Melanoma cells were plated with 5000 cells per well in 96-well tissue culture plates. After 24 hours, the cells were treated with drugs or DMSO at the indicated concentrations, in triplicates. WST-1 reagent was added to the wells and incubated at 37° C. for 2 hours before and after the treatment period of 48 hours. The plates were then read at 450 nm on a Wallac Victor^3 1420 Multilabel Counter (Perkin Elmer, ON, Canada). Absorbance readings are expressed in terms of cell proliferation as percent of the control cells growth within the 48 hours of treatment.
(§3) The inventors quantified the effect of exposing these cell lines to PLX-4720 on the half-maximum inhibitory concentration (IC50) (Table 1).

The next test has as its system SK-Mel28. Described as above. The note with it: Homo sapiens, SK-MEL-28; SK-Mel28 cell line; read-out: half-maximum inhibitory concentration (IC50). On the procedure:
as §1, §2, §3

Another test deals with Mel888. Described as above. The note with it: Mel888 cell line; read-out: half-maximum inhibitory concentration (IC50). On the procedure: as §1, §2, §3
The test system of another test is SK-Mel5. The description is as above. The conditions noted are these: Homo sapiens, SK-MEL-5; SK-Mel5 cell line; read-out: half-maximum inhibitory concentration (IC50). The procedure:
as §1, §2, §3

The test system of the next test is A375. The test is described as above. The conditions noted are these: Homo sapiens, A-375; A375 cell line; read-out: half-maximum inhibitory concentration (IC50). On the procedure: as §1, §2, §3
The subject of another test is ERK phosphorylation. Description: Western blot analysis of total and phosphorylated proteins. The conditions noted are these: all tested cell lines.
The mark [1] stands for this setting: sensitive cell lines A375, Mel888.

Some results are limits rather than exact numbers.

For `CCCS(=O)(=O)Nc1ccc(F)c(C(=O)c2c[nH]c3ncc(Cl)cc23)c1F` [PLX-4720, N-[3-[(5-Chloro-1H-pyrrolo[2,3-b]pyridin-3-yl)carbonyl]-2,4-difluorophenyl]-1-propanesulfonamide], in the test on eIF4F complex (less sensitive cell lines Mel624, A2058), the “formation / disruption of the eIF4F (eIF4E-eIF4G) complex” value is reported as “unchanged”. Also, in the test with eIF4F complex (setting [1]), the “amount of eIF4E-bound 4EBP1 (Cap-OFF complex)” value is reported as “increased”. Also, the “quantity of eIF4E-bound eIF4G (Cap-ON complex)” value in the test with eIF4F complex (setting [1]) is “decreased”. Moreover, the IC50 is > 10000 nM in the test with Mel10; 400 nM with SK-Mel28; 100 nM in the test with Mel888; 1500 nM in the test on SK-Mel5; 400 nM with A375. Further, the “ERK phosphorylation downstream of BRAF” value in the test on ERK phosphorylation is reported as “inhibited ERK phosphorylation”.
